Results taken from ChEMBL document CHEMBL5724914, “Linking interpersonal differences in gut microbiota composition and drug biotransformation activity” (2024).

What was measured:
[1] = human gut metagenome, 24 h, 2 µM
[2] = (§1) The drug is tested on WLS-007 corresponding to human gut metagenome with ENA study accession number: PRJEB37062 and ENA sample accession number: ERS12561742 for biotransformation under anaerobic condition. The drug concentrations were measured over 9 timepoints collected between 0 and 24 hours of incubation by liquid-chromatography-coupled mass spectrometry (LC–MS); details: 2 µM
[3] = human gut metagenome, 24 h, 2 µM; remark: listed apart in the source
[4] = as §1, with “WLS-010” for “WLS-007”, “ERS12561743” for “ERS12561742”; details: 2 µM
[5] = as §1, with “Z-008” for “WLS-007”, “to” for “to human gut”, “ERS12561808” for “ERS12561742”; details: 2 µM
[6] = human gut metagenome, 24 h, 2 µM; remark: listed apart in the source
[7] = as §1, with “WLS-098” for “WLS-007”, “ERS12561754” for “ERS12561742”; details: 2 µM
[8] = as §1, with “Z-012” for “WLS-007”, “to” for “to human gut”, “ERS12561812” for “ERS12561742”; details: 2 µM
[9] = as §1, with “WLS-006” for “WLS-007”, “ERS12561741” for “ERS12561742”; details: 2 µM
Further: call rule not given here.

Compound | Bacterial Biotransformation [1] | Bacterial Biotransformation [2] | Bacterial Biotransformation [3] | Bacterial Biotransformation [4] | Bacterial Biotransformation [5] | Bacterial Biotransformation [6] | Bacterial Biotransformation [7] | Bacterial Biotransformation [8] | Bacterial Biotransformation [9]
C#C[C@]1(OC(C)=O)CC[C@H]2[C@@H]3CCC4=C[C@@H](OC(C)=O)CC[C@@H]4[C@H]3CC[C@@]21C [ETHYNODIOL DIACETATE] | Compound metabolized | Compound metabolized | Compound metabolized | Compound metabolized | Compound metabolized | Compound metabolized | Compound metabolized | Compound metabolized | Compound metabolized
CC(C)c1c(CN(C)C(C)Cc2ccccc2)n(C)n(-c2ccccc2)c1=O (stereo unspecified) [FAMPROFAZONE] | Compound metabolized | Compound metabolized | Compound metabolized | Compound metabolized | Compound metabolized | Compound metabolized | Compound metabolized | Compound metabolized | Compound metabolized
N=C(N)NC(=O)Cc1c(Cl)cccc1Cl [GUANFACINE] | Compound NOT metabolized | Compound NOT metabolized | Compound NOT metabolized | Compound NOT metabolized | Compound NOT metabolized | Compound NOT metabolized | Compound NOT metabolized | Compound NOT metabolized | Compound NOT metabolized
Nc1nc(N)nc(-c2cc(Cl)ccc2Cl)n1.O=C(O)/C=C\C(=O)O [IRSOGLADINE MALEATE] | Compound NOT metabolized | Compound NOT metabolized | Compound NOT metabolized | Compound NOT metabolized | Compound NOT metabolized | Compound NOT metabolized | Compound metabolized | Compound NOT metabolized | Compound NOT metabolized
CN1CCC(=C2c3ccccc3CC(=O)c3sccc32)CC1.O=C(O)/C=C/C(=O)O [KETOTIFEN FUMARATE] | Compound NOT metabolized | Compound metabolized | Compound metabolized | Compound NOT metabolized | Compound NOT metabolized | Compound NOT metabolized | Compound metabolized | Compound NOT metabolized | Compound metabolized
CC[C@H](C)C(=O)O[C@H]1CCC=C2C=C[C@H](C)[C@H](CC[C@@H]3C[C@@H](O)CC(=O)O3)[C@H]21 [MEVASTATIN] | Compound metabolized | Compound NOT metabolized | Compound metabolized | Compound metabolized | Compound NOT metabolized | Compound metabolized | Compound NOT metabolized | Compound NOT metabolized | Compound metabolized
COc1ccc2cc([C@H](C)C(=O)O)ccc2c1 [NAPROXEN] | Compound NOT metabolized | Compound NOT metabolized | Compound metabolized | Compound metabolized | Compound NOT metabolized | Compound metabolized | Compound metabolized | Compound NOT metabolized | Compound metabolized
C#C[C@]1(OC(C)=O)CC[C@H]2[C@@H]3CCC4=C/C(=N/O)CC[C@@H]4[C@H]3CC[C@@]21CC [NORGESTIMATE] | Compound NOT metabolized | Compound metabolized | Compound NOT metabolized | Compound metabolized | Compound NOT metabolized | Compound NOT metabolized | Compound metabolized | Compound NOT metabolized | Compound metabolized
COc1ccnc(C[S+]([O-])c2nc3ccc(OC(F)F)cc3[nH]2)c1OC (stereo unspecified) [PANTOPRAZOLE] | Compound metabolized | Compound metabolized | Compound metabolized | Compound metabolized | Compound metabolized | Compound metabolized | Compound metabolized | Compound metabolized | Compound metabolized
O=C1N=C([O-])NC1(c1ccccc1)c1ccccc1.[Na+] [PHENYTOIN SODIUM] | Compound NOT metabolized | Compound metabolized | Compound metabolized | Compound metabolized | Compound NOT metabolized | Compound NOT metabolized | Compound metabolized | Compound NOT metabolized | Compound metabolized
C[C@]12C=CC(=O)C=C1CC[C@@H]1[C@@H]2C(=O)C[C@@]2(C)[C@H]1CC[C@]2(O)C(=O)CO [PREDNISONE] | Compound metabolized | Compound metabolized | Compound metabolized | Compound metabolized | Compound NOT metabolized | Compound metabolized | Compound metabolized | Compound metabolized | Compound metabolized
CN(CCOc1ccc(CC2SC(=O)NC2=O)cc1)c1ccccn1.O=C(O)/C=C\C(=O)O (stereo unspecified) [ROSIGLITAZONE MALEATE] | Compound NOT metabolized | Compound metabolized | Compound metabolized | Compound NOT metabolized | Compound NOT metabolized | Compound metabolized | Compound metabolized | Compound NOT metabolized | Compound metabolized
CC(C)c1nc(N(C)S(C)(=O)=O)nc(-c2ccc(F)cc2)c1/C=C/[C@@H](O)C[C@@H](O)CC(=O)[O-].CC(C)c1nc(N(C)S(C)(=O)=O)nc(-c2ccc(F)cc2)c1/C=C/[C@@H](O)C[C@@H](O)CC(=O)[O-].[Ca+2] [ROSUVASTATIN CALCIUM] | Compound NOT metabolized | Compound metabolized | Compound metabolized | Compound metabolized | Compound NOT metabolized | Compound metabolized | Compound metabolized | Compound NOT metabolized | Compound metabolized
O=C(O)c1cc(/N=N/c2ccc(S(=O)(=O)Nc3ccccn3)cc2)ccc1O [SULFASALAZINE] | Compound metabolized | Compound metabolized | Compound metabolized | Compound metabolized | Compound metabolized | Compound metabolized | Compound metabolized | Compound metabolized | Compound metabolized
